# From the METLIN SMRT retention time set (Domingo-Almenara et al. 2019)
# Test: gradient 5% acetonitrile 3 min, to 50% in 2 min, to 85% in 15 min, held 3 min, 100 µL/min
# Conditions: column: Zorbax Extend-C18 2.1 x 50 mm; eluents: water / acetonitrile, 0.1% formic acid
# Summary of the method: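 A Zorbax Extend-C18 column (2.1 × 50 mm, 1.8 μm) run at 100 μL/min with water and acetonitrile, both containing 0.1% formic acid, separated mixtures of ~100 pure standards. The HPLC was coupled to a quadrupole time-of-flight mass spectrometer operated in positive and negative ionization mode, with dead and dwell volumes of 40 μL and 900 μL. Each retention time was taken from a computationally picked adduct peak that was then manually inspected.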
row,Structure (SMILES),RP-LC retention time
1,O=S(=O)(c1ccc(-c2noc(-c3ccc(F)c(F)c3)n2)cc1)N1CCCC1,1210 s
2,O=C(NCCc1csc(-c2ccc(F)cc2)n1)c1ccc2nsnc2c1,876 s
3,CCn1cc(-c2nc(C)c(C(=O)Nc3ccc(F)cc3F)s2)c2cccnc21,1010 s
4,Cc1ccn2c(Nc3ccccc3C)c(-c3ccccc3)nc2c1,745 s
5,CCNC(=O)CCc1nc2ccccc2n(CC(=O)NCCc2ccc(Cl)cc2)c1=O,773 s
6,CCC(C)NC(=O)c1nn(-c2ccc(OC)cc2)c(OC)cc1=O (configuration not stated),692 s
7,CCCNC(=O)N1CCCC1c1nc(-c2ccccc2)no1 (configuration not stated),816 s
8,O=C(Cc1nnc2c(-c3nc(C4CC4)no3)cccn12)N1CCSCC1,653 s
9,Cc1ccn2c(Nc3ccc4c(c3)OCCO4)c(-c3ccccc3)nc2c1,690 s
10,COc1cc(C(=O)Nc2cccc(N3CCCS3(=O)=O)c2)c([N+](=O)[O-])cc1OC,681 s
11,CC(CCc1ccccc1)NC(=O)CCC(=O)N1CCCn2nc(-c3cccn3C)cc21 (configuration not stated),842 s
12,Cc1ccccc1NC(=O)C1CCCN1S(=O)(=O)c1cc2c(cc1C)NC(=O)CO2 (configuration not stated),763 s
13,CN1CCN(S(=O)(=O)c2c[nH]c(=O)[nH]c2=O)CC1,720 s
14,COc1ccc(Cl)c2c(=O)c3c([nH]c12)CCN(CC(=O)Nc1ccc(C)c(Cl)c1)C3,762 s
15,CCc1ccc(NC(=O)C2CCCN(c3nccnc3Sc3ccc(C)cc3)C2)cc1 (configuration not stated),1290 s
16,CC(CCc1ccccc1)NC(=O)Cc1nnc(-c2ccc3ncccc3c2)o1 (configuration not stated),761 s
17,NC(=O)Cn1c(CCc2ccccc2)nc2ccccc21,581 s
18,CCCCn1c(CNC(=O)c2cccs2)nnc1SCC(=O)OCC,713 s
19,CCOCCCNC(=O)C(CC)n1nc(C)c2nn(-c3ccccc3)c(C)c2c1=O (configuration not stated),823 s

row,Structure (SMILES),RP-LC retention time
1,CCn1ncc(CN2CCC[C@H]2c2nc(-c3ccccc3)n[nH]2)c1C,601 s
2,COc1cc(NC(=O)C2CCCN(c3nc4ccccc4nc3C(F)(F)F)C2)cc(OC)c1 (configuration not stated),1180 s
3,O=C(Nc1cc(F)cc(F)c1)c1c(O)c2cccnc2n(-c2ccc(F)cc2)c1=O,918 s
4,COC(=O)c1ccc(NC(=O)Cc2csc(NC(=O)c3ncccn3)n2)cc1,642 s
5,Cc1nn(-c2ccc(F)cc2)c(C)c1S(=O)(=O)N1CCC(C(=O)N2CCCCC2)CC1,914 s
6,CCn1cc(CCNC(=O)Nc2ccc(C)cc2Cl)c2cccnc21,812 s
7,O=C1COc2ccc(S(=O)(=O)N3CCC(C(=O)Nc4cccc(Br)c4)CC3)cc2N1,859 s
8,Cc1ccc(-c2cc(C(=O)N3CCC(NC(=O)C4CCCCC4)CC3)[nH]n2)c(C)c1,811 s
9,Cc1nn(CC(=O)N2CCOCC2)c(=O)c2c(-n3cccc3)n(-c3cccc(F)c3)nc12,733 s
10,COc1ccccc1C(=O)NC1(C(F)(F)F)C(=O)N(CC2CCCO2)C2=C1C(=O)CC(C)(C)C2 (configuration not stated),986 s
11,Cc1csc(-c2cc(S(=O)(=O)N3CCC(Cc4ccccc4)CC3)c(C)n2C)n1,1300 s
12,CCOC(=O)Cc1ccc(NC(=O)NC2CCN(c3ccc(C)c(C)c3)C2=O)cc1 (configuration not stated),877 s
13,CCCNc1cc(N2CCC(CCC(=O)NCc3ccc(F)cc3F)CC2)ncn1,694 s
14,COC(=O)CCNC(=O)C1c2ccccc2C(=O)N(Cc2ccccc2)C12CCCC2 (configuration not stated),840 s
15,Cc1noc(C)c1CNC(=O)Cc1ccc(F)cc1,713 s
16,O=C(NCc1ccccc1)N1CCCC1c1nc(-c2ccccc2)n[nH]1 (configuration not stated),731 s
17,Cn1cccc1C(=O)N1CCN(c2cc(-c3ccccc3)[nH]n2)CC1,747 s
18,CCc1nc(OCC(=O)Nc2ccccc2F)c2ccccc2n1,775 s
